Assay results from the NIST ThermoML archive (doi:10.1021/je1013476).

Experiments:
[1] = xn = mol fraction of the nth substance listed; details: 101 kPa, Liquid; for viscosity: Capillary tube (Ostwald / Ubbelohde) method; for mass density: Vibrating tube method
[2] = excess molar enthalpy (molar enthalpy of mixing); xn = mol fraction of the nth substance listed; details: 303.15 K, 101 kPa, Liquid, Calvet calorimetry

CCOC(=O)OCC [diethyl carbonate] + CCCCCO
[1]
Details | mass density [kg/m3] | viscosity [mPa·s]
288.15 K, x1 = 0.05026 | 826.9 | 3.879
288.15 K, x1 = 0.106 | 836.4 | 3.215
288.15 K, x1 = 0.1881 | 850.28 | 2.529
288.15 K, x1 = 0.2879 | 866.92 | 1.972
288.15 K, x1 = 0.396 | 884.69 | 1.595
288.15 K, x1 = 0.4905 | 900.03 | 1.355
288.15 K, x1 = 0.5917 | 916.28 | 1.182
288.15 K, x1 = 0.7104 | 935.09 | 1.03
288.15 K, x1 = 0.8067 | 950.23 | 0.948
288.15 K, x1 = 0.896 | 964.17 | 0.898
288.15 K, x1 = 0.9607 | 974.25 | 0.871
293.15 K, x1 = 0.04854 | 822.8 | 3.391
293.15 K, x1 = 0.0572 | 824.25 | 3.292
293.15 K, x1 = 0.1071 | 832.6 | 2.796
293.15 K, x1 = 0.1988 | 847.85 | 2.138
293.15 K, x1 = 0.29 | 862.87 | 1.725
293.15 K, x1 = 0.398 | 880.41 | 1.402
293.15 K, x1 = 0.4939 | 895.79 | 1.202
293.15 K, x1 = 0.5998 | 912.55 | 1.049
293.15 K, x1 = 0.6968 | 927.7 | 0.947
293.15 K, x1 = 0.8009 | 943.91 | 0.869
293.15 K, x1 = 0.8902 | 957.76 | 0.826
293.15 K, x1 = 0.9604 | 968.66 | 0.808
303.15 K, x1 = 0.06248 | 817.46 | 2.453
303.15 K, x1 = 0.09976 | 823.53 | 2.195
303.15 K, x1 = 0.2017 | 839.99 | 1.686
303.15 K, x1 = 0.2898 | 854.09 | 1.395
303.15 K, x1 = 0.3969 | 871 | 1.159
303.15 K, x1 = 0.4922 | 885.91 | 1.013
303.15 K, x1 = 0.5941 | 901.64 | 0.893
303.15 K, x1 = 0.6987 | 917.65 | 0.808
303.15 K, x1 = 0.8039 | 933.63 | 0.75
303.15 K, x1 = 0.8997 | 948.13 | 0.715
303.15 K, x1 = 0.9608 | 957.42 | 0.703
313.15 K, x1 = 0.05411 | 808.37 | 1.951
313.15 K, x1 = 0.1042 | 816.28 | 1.705
313.15 K, x1 = 0.1939 | 830.39 | 1.373
313.15 K, x1 = 0.29 | 845.34 | 1.139
313.15 K, x1 = 0.406 | 863.19 | 0.95
313.15 K, x1 = 0.4965 | 876.96 | 0.847
313.15 K, x1 = 0.5957 | 891.9 | 0.763
313.15 K, x1 = 0.7474 | 914.56 | 0.675
313.15 K, x1 = 0.803 | 922.81 | 0.653
313.15 K, x1 = 0.8997 | 937.15 | 0.628
313.15 K, x1 = 0.9582 | 945.86 | 0.62

[2]
Details | excess molar enthalpy [kcal/mol]
x1 = 0.04842 | 0.0916
x1 = 0.085 | 0.156
x1 = 0.1521 | 0.251
x1 = 0.2122 | 0.326
x1 = 0.263 | 0.373
x1 = 0.3154 | 0.418
x1 = 0.3592 | 0.441
x1 = 0.4399 | 0.477
x1 = 0.4581 | 0.478
x1 = 0.5444 | 0.491
x1 = 0.64 | 0.47
x1 = 0.6925 | 0.435
x1 = 0.7415 | 0.407
x1 = 0.7993 | 0.357
x1 = 0.8519 | 0.291
x1 = 0.9139 | 0.191

CCOC(=O)OCC [diethyl carbonate] + CCCCCCCCO
[1]
Details | mass density [kg/m3] | viscosity [mPa·s]
288.15 K, x1 = 0.05879 | 834.94 | 8.723
288.15 K, x1 = 0.09178 | 838.6 | 7.678
288.15 K, x1 = 0.184 | 849.27 | 5.521
288.15 K, x1 = 0.2839 | 861.63 | 3.992
288.15 K, x1 = 0.4001 | 877.04 | 2.876
288.15 K, x1 = 0.5109 | 892.89 | 2.157
288.15 K, x1 = 0.598 | 906.21 | 1.773
288.15 K, x1 = 0.6927 | 921.66 | 1.441
288.15 K, x1 = 0.8073 | 941.89 | 1.157
288.15 K, x1 = 0.9275 | 965.14 | 0.953
288.15 K, x1 = 0.9531 | 970.42 | 0.921
293.15 K, x1 = 0.05259 | 830.75 | 7.441
293.15 K, x1 = 0.1047 | 836.45 | 6.062
293.15 K, x1 = 0.1967 | 847.03 | 4.538
293.15 K, x1 = 0.2955 | 859.15 | 3.308
293.15 K, x1 = 0.3964 | 872.38 | 2.544
293.15 K, x1 = 0.5031 | 887.37 | 1.951
293.15 K, x1 = 0.604 | 902.57 | 1.573
293.15 K, x1 = 0.6995 | 918.01 | 1.285
293.15 K, x1 = 0.8175 | 938.67 | 1.039
293.15 K, x1 = 0.9124 | 956.76 | 0.9
293.15 K, x1 = 0.9531 | 964.98 | 0.853
303.15 K, x1 = 0.05353 | 823.7 | 5.282
303.15 K, x1 = 0.1003 | 828.65 | 4.522
303.15 K, x1 = 0.1902 | 838.63 | 3.432
303.15 K, x1 = 0.3002 | 851.69 | 2.536
303.15 K, x1 = 0.4112 | 865.89 | 1.928
303.15 K, x1 = 0.5038 | 878.58 | 1.584
303.15 K, x1 = 0.5934 | 891.62 | 1.32
303.15 K, x1 = 0.6981 | 907.98 | 1.075
303.15 K, x1 = 0.8151 | 927.85 | 0.884
303.15 K, x1 = 0.9138 | 946.1 | 0.773
303.15 K, x1 = 0.9548 | 954.16 | 0.74
313.15 K, x1 = 0.05666 | 816.83 | 3.842
313.15 K, x1 = 0.1109 | 822.42 | 3.267
313.15 K, x1 = 0.1956 | 831.59 | 2.59
313.15 K, x1 = 0.2893 | 842.35 | 2.054
313.15 K, x1 = 0.4005 | 856.05 | 1.585
313.15 K, x1 = 0.5067 | 870.12 | 1.273
313.15 K, x1 = 0.6044 | 884.01 | 1.059
313.15 K, x1 = 0.7038 | 899.18 | 0.893
313.15 K, x1 = 0.8041 | 915.66 | 0.766
313.15 K, x1 = 0.9092 | 934.43 | 0.672
313.15 K, x1 = 0.954 | 942.96 | 0.643

[2]
Details | excess molar enthalpy [kcal/mol]
x1 = 0.09134 | 0.176
x1 = 0.1276 | 0.236
x1 = 0.1764 | 0.31
x1 = 0.2484 | 0.394
x1 = 0.3155 | 0.46
x1 = 0.374 | 0.5
x1 = 0.4304 | 0.528
x1 = 0.491 | 0.544
x1 = 0.5699 | 0.542
x1 = 0.6268 | 0.529
x1 = 0.6895 | 0.499
x1 = 0.7492 | 0.455
x1 = 0.8111 | 0.387
x1 = 0.8705 | 0.298
x1 = 0.9357 | 0.167
